Results published in patent publication US7982053B2, “Peptide deformylase inhibitors” (GlaxoSmithKline LLC, priority 2005, dated 2011).

Test system: Mycobacterium tuberculosis H37Rv
Assay: Mycobacterium tuberculosis Susceptibility Assay (Resazurin)
Assay type: cell-based
Conditions: 7H9+ADC medium, 37° C., read-out: MIC (minimal inhibitory concentration)

Row | SMILES | MIC
1 | O=CN(O)C[C@@H](CC1CCCC1)C(=O)N1CCC[C@H]1C(=O)NC(=O)c1ccc(F)cc1 [Example 1, 1-((2R)-3-cyclopentyl-2-{[formyl(hydroxy)amino]methyl}propanoyl)-N-[(4-fluorophenyl)carbonyl]-L-prolinamide] | ≤ 32 µg/mL
2 | CC(=O)NC(=O)[C@@H]1CCCN1C(=O)[C@H](CC1CCCC1)CN(O)C=O [Example 2, N-acetyl-1-((2R)-3-cyclopentyl-2-{[formyl(hydroxy)amino]methyl}propanoyl)-L-prolinamide] | ≤ 32 µg/mL
3 | O=CN(O)C[C@@H](CC1CCCC1)C(=O)N1CCC[C@H]1C(=O)NC(=O)c1ccccc1 [Example 3, 1-((2R)-3-cyclopentyl-2-{[formyl(hydroxy)amino]methyl}propanoyl)-N-(phenylcarbonyl)-L-prolinamide] | ≤ 32 µg/mL
4 | COCC(=O)NC(=O)[C@@H]1CCCN1C(=O)[C@H](CC1CCCC1)CN(O)C=O [Example 5, 1-((2R)-3-cyclopentyl-2-{[formyl(hydroxy)amino]methyl}propanoyl)-N-[(methyloxy)acetyl]-L-prolinamide] | ≤ 32 µg/mL
5 | O=CN(O)C[C@@H](CC1CCCC1)C(=O)N1CCC[C@H]1C(=O)NC(=O)c1ccc(C(F)(F)F)nc1 [Example 6, N-[1-((2R)-3-cyclopentyl-2-{[formyl(hydroxy)amino]methyl}propanoyl)-L-prolyl]-6-(trifluoromethyl)-3-pyridinecarboxamide] | ≤ 32 µg/mL
6 | Cc1cc(C(=O)NC(=O)[C@@H]2CCCN2C(=O)[C@H](CC2CCCC2)CN(O)C=O)nn1C [Example 7, 1-((2R)-3-cyclopentyl-2-{[formyl(hydroxy)amino]methyl}propanoyl)-N-[(1,5-dimethyl-1H-pyrazol-3-yl)carbonyl]-L-prolinamide] | ≤ 32 µg/mL
7 | Cc1cc(C(=O)NC(=O)[C@@H]2CCCN2C(=O)[C@H](CC2CCCC2)CN(O)C=O)n(C)n1 [Example 8, 1-((2R)-3-cyclopentyl-2-{[formyl(hydroxy)amino]methyl}propanoyl)-N-[(1,3-dimethyl-1H-pyrazol-5-yl)carbonyl]-L-prolinamide] | ≤ 32 µg/mL
8 | Cc1cc(C(=O)NC(=O)[C@@H]2CCCN2C(=O)[C@H](CC2CCCC2)CN(O)C=O)no1 [Example 9, 1-((2R)-3-cyclopentyl-2-{[formyl(hydroxy)amino]methyl}propanoyl)-N-[(5-methyl-3-isoxazolyl)carbonyl]-L-prolinamide] | ≤ 32 µg/mL
9 | O=CN(O)C[C@@H](CC1CCCC1)C(=O)N1CCC[C@H]1C(=O)NC(=O)c1ccccc1F [Example 10, 1-((2R)-3-cyclopentyl-2-{[formyl(hydroxy)amino]methyl}propanoyl)-N-[(2-fluorophenyl)carbonyl]-L-prolinamide] | ≤ 32 µg/mL
10 | O=CN(O)C[C@@H](CC1CCCC1)C(=O)N1CCC[C@H]1C(=O)NC(=O)c1cccc(F)c1 [Example 11, 1-((2R)-3-cyclopentyl-2-{[formyl(hydroxy)amino]methyl}propanoyl)-N-[(3-fluorophenyl)carbonyl]-L-prolinamide] | ≤ 32 µg/mL
11 | Cc1ccc(C(=O)NC(=O)[C@@H]2CCCN2C(=O)[C@H](CC2CCCC2)CN(O)C=O)cc1F [Example 12] | ≤ 32 µg/mL
12 | N#Cc1cccc(C(=O)NC(=O)[C@@H]2CCCN2C(=O)[C@H](CC2CCCC2)CN(O)C=O)c1 [Example 14, N-[(3-cyanophenyl)carbonyl]-1-((2R)-3-cyclopentyl-2-{[formyl(hydroxy)amino]methyl}propanoyl)-L-prolinamide] | ≤ 32 µg/mL
13 | O=CN(O)C[C@@H](CC1CCCC1)C(=O)N1CCC[C@H]1C(=O)NC(=O)c1cc(F)ccc1F [Example 15, 1-((2R)-3-cyclopentyl-2-{[formyl(hydroxy)amino]methyl}propanoyl)-N-[(2,5-difluorophenyl)carbonyl]-L-prolinamide] | ≤ 32 µg/mL
14 | O=CN(O)C[C@@H](CC1CCCC1)C(=O)N1CCC[C@H]1C(=O)NC(=O)c1ccncc1 [Example 17, N-[1-((2R)-3-cyclopentyl-2-{[formyl(hydroxy)amino]methyl}propanoyl)-L-prolyl]-4-pyridinecarboxamide] | ≤ 32 µg/mL
15 | O=CN(O)C[C@@H](CC1CCCC1)C(=O)N1CCC[C@H]1C(=O)NC(=O)c1c(F)cccc1F [Example 18, 1-((2R)-3-cyclopentyl-2-{[formyl(hydroxy)amino]methyl}propanoyl)-N-[(2,6-difluorophenyl)carbonyl]-L-prolinamide] | ≤ 32 µg/mL
16 | N[C@H]1CC[C@H](OC(=O)NC(=O)[C@@H]2CCCN2C(=O)[C@H](CC2CCCC2)CN(O)C=O)CC1 [Example 19, N-{[(trans-4-aminocyclohexyl)oxy]carbonyl}-1-((2R)-3-cyclopentyl-2-{[formyl(hydroxy)amino]methyl}propanoyl)-L-prolinamide] | ≤ 32 µg/mL
17 | O=CN(O)C[C@@H](CC1CCCC1)C(=O)N1CCC[C@H]1C(=O)NC(=O)c1ccc(N2CCOCC2)nc1 [Example 20, N-[1-((2R)-3-cyclopentyl-2-{[formyl(hydroxy)amino]methyl}propanoyl)-L-prolyl]-6-(4-morpholinyl)-3-pyridinecarboxamide] | ≤ 32 µg/mL
